Assays:
[1] = test system: human colon carcinoma HT-29; assay: Proliferation assay (IC50) under aerobic and hypoxic conditions, HT-29; assay type: cell-based; settings: for RHT: HT-29, ratio Tirapazamine/test compound under hypoxic conditions; for HCR: HT-29, ratio of IC50 under aerobic and hypoxic conditions; for IC50: Homo sapiens, HT-29, hypoxic (anoxia <0.001% O2), 4 h exposure
Description: (§1) Evaluation of the Cytotoxicity of Compounds by Proliferation Assay (IC50) Under Aerobic and Hypoxic Conditions.
(§2) Compounds representative of the invention were evaluated under both aerobic and hypoxic conditions in a proliferation assay (IC50), using two cell lines: human colon carcinoma HT-29, and human cervical carcinoma SiHa.
(§3) Drug exposures were performed in 96-well plates (Nunc) using either a 37° C. humidified incubator (20% O2, 5% CO2) or in the incubator compartment (37° C.) of an anaerobic chamber (Shell Lab) where palladium catalyst scrubbed gas (90% N2, 5% H2, 5% CO2) ensures severe anoxia (<0.001% O2). For each experiment, compounds were simultaneously tested under both oxic and hypoxic conditions against the HT-29 cell line and included TPZ as an independent internal control at the front and back of the assay (n=2). Final data was pooled from a series of seven independent experiments and is calculated using inter-experimental means. In all cases, 8-methyl-5-nitroquinoline was used as a second internal control to confirm that strict hypoxia was present during the experiment. (Siim et al. Br. J. Cancer 1994, 70, 596-603). Cell cultures were grown in αMEM (Gibco) containing 5% heat inactivated FCS and maintained in exponential growth phase. For each individual experiment an appropriate number of cells were seeded (HT-29=1000) into wells in αMEM÷10% FCS+10 mM added glucose+100 μM 2′-deoxycytidine (2′dCyd), and allowed to attach for 3 h. High glucose (final concentration 17 mM) and the presence of 2′-dCyd minimize hypoxia-induced cell cycle arrest. Replicates were then exposed to BTOs, using 2-fold serial dilutions in triplicate, for a further 4 h. Subsequently cells were washed free of compound using complete media (without glucose/2′-dCyd) and allowed to grow for 5 (oxic) or 6 (anoxic) days. Plates were stained as described previously (Wilson et al., J. Med. Chem. 1989, 32, 31-38) and IC50 values determined.
(§4) IC50=The concentration of drug (in micromolar) to reduce viable cell numbers to 50% of those of control cell cultures grown under the same conditions but not exposed to drug
(§5) RHT=Relative hypoxic toxicity is defined as the ratio of concentrations of Tirapazamine/test compound to give equal cell killing under hypoxic conditions.
(§6) HCR=Hypoxic cytotoxicity ratio is defined as the ratio of drug concentrations under aerobic and hypoxic condition to produce equal cell survival (50%) determined by proliferation assay

murine SCCVII = assay: Clonogenic assay under aerobic and hypoxic conditions, SCCVII; assay type: cell-based; settings: SCVIII cells; for IC90: Mus musculus, 1 h, hypoxic, 60 min drug exposure, SN (hypoxic), read-out: C10 hypoxic; for HCR: ratio of C10 under aerobic and hypoxic conditions; for RHT: ratio of hypoxic TPZ C10 to hypoxic compound C10
Description: (§7) Evaluation of the Cytotoxicity of Compounds by Clonogenic Assay Under Aerobic and Hypoxic Conditions.
(§8) Compounds representative of the invention were evaluated under both aerobic and hypoxic conditions in clonogenic assays, using three cell lines: human colon carcinoma HT-29, murine SCCVII, and human lung adenocarcinoma LXFL. Clonogenic survival was determined using aerobic and hypoxic SCCVII cell suspensions. Drug exposures were performed using continuously stirred and gassed single cell suspensions (10^6 cells/mL) at 37° C., equilibrated with 5% CO2 in air or N2 for 60 min before drug addition. After a 60 min drug exposure cells were washed by centrifugation and plated to determine colony formation Cytotoxicity was measured as the concentration required to reduce plating efficiency to 10% of controls (C10). The hypoxic cytotoxicity ratio (HCR) was determined as the ratio of the C10 values under aerobic and hypoxic conditions. The relative hypoxic toxicity (RHT) was determined as the ratio of hypoxic TPZ C10 to hypoxic BTO C10. Abbreviations used in Table 2 are:
(§9) C10=The concentration of drug (in micromolar) to reduce viable cell numbers to 10% of those of control cell cultures grown under the same conditions but not exposed to drug
as §5
(§10) HCR=Hypoxic cytotoxicity ratio is defined as the ratio of drug concentrations under aerobic and hypoxic condition to produce equal cell survival (10%) determined by clonogenic assay

[2] = test system: human lung adenocarcinoma LXFL; assay: Clonogenic assay under aerobic and hypoxic conditions, LXFL; assay type: cell-based; settings: LXFL cells
Description: as §7, §8, §9, §5, §10

[3] = test system: human cervical carcinoma SiHa; assay: Proliferation assay (IC50) under aerobic and hypoxic conditions, SiHa; assay type: cell-based; settings: for IC50: Homo sapiens, hypoxic, 4 h exposure; for RHT: ratio Tirapazamine/test compound under hypoxic conditions; for HCR: ratio of IC50 under aerobic and hypoxic conditions
Description: as §1, §2, §3, §4, §5, §6

| Structure (SMILES) | RHT [1] | HCR [1] | IC50 [1] [nM] | melting point [°C] | IC90 (murine SCCVII) [nM] | HCR (murine SCCVII) | RHT (murine SCCVII) | C10 hypoxic ([2]; hypoxic, 60 min drug exposure) [µM] | HCR ([2]; ratio of C10 under aerobic and hypoxic conditions) | RHT ([2]; ratio of hypoxic TPZ C10 to hypoxic compound C10) | IC50 [3] [nM] | RHT [3] | HCR [3] |
| --- | --- | --- | --- | --- | --- | --- | --- | --- | --- | --- | --- | --- | --- |
| Cl.O=C(NCCCNCCCNc1n[n+]([O-])c2ccccc2[n+]1[O-])c1cccc2nc3ccccc3nc12 [Compound 31, N-[3-({3-[(1,4-dioxido-1,2,4-benzotriazin-3-yl)amino]propyl}amino)propyl]-1-phenazinecarboxamide hydrochloride] | 163 | 5.3 | 356 | 163 to 169 |  |  |  |  |  |  |  |  |  |
| CN(CCCNC(=O)c1cccc2cc3ccccc3nc12)CCCNc1n[n+]([O-])c2ccccc2[n+]1[O-] [Compound 41, N-{3-[{3-[(1,4-Dioxido-1,2,4-benzotriazin-3-yl)amino]propyl}(methyl)amino]propyl}-4-acridinecarboxamide] | 134 | 154 | 43 |  | 800 | 52.5 | 12.5 | 0.4 | 50 | 37.5 |  |  |  |
| Cc1cccc2nc3c(C(=O)NCCCN(C)CCCNc4n[n+]([O-])c5ccccc5[n+]4[O-])cccc3nc12 [Compound 45, N-{3-[{3-[(1,4-Dioxido-1,2,4-benzotriazin-3-yl)amino]propyl}(methyl)amino]-propyl}-9-methyl-4-phenazinecarboxamide] | 321 | 31 | 18 | 138 to 142 | 310 | 23.9 | 29 |  |  |  |  |  |  |
| Cc1ccc2c(c1)[n+]([O-])nc(NCCCN(C)CCCNC(=O)c1cccc3cc4ccccc4nc13)[n+]2[O-] [Compound 74, N-[3-(Methyl{3-[(7-methyl-1,4-dioxido-1,2,4-benzotriazin-3-yl)amino]propyl}amino)propyl]-4-acridinecarboxamide] | 44.7 | 95 | 130 | 166 to 168 |  |  |  |  |  |  |  |  |  |
| Cc1ccc2c(c1)[n+]([O-])nc(NCCCN(C)CCCNC(=O)c1cccc3ccc(-c4ccncc4)nc13)[n+]2[O-] [Compound 75, N-[3-(Methyl{3-[(7-methyl-1,4-dioxido-1,2,4-benzotriazin-3-yl)amino]propyl}amino)propyl]-2-(4-pyridinyl)-8-quinolinecarboxamide] | 29 | 92 | 200 | 178 to 180 |  |  |  |  |  |  | 70 | 53 | 110 |
| Cc1ccc2c(c1)[n+]([O-])c(NCCCN(C)CCCNC(=O)c1cccc3ccc(-c4ccncc4)nc13)n[n+]2[O-] [Compound 86, N-[3-(Methyl{3-[(6-methyl-1,4-dioxido-1,2,4-benzotriazin-3-yl)amino]propyl}amino)propyl]-2-(4-pyridinyl)-8-quinolinecarboxamide] | 66 | 168 | 225 | 178 to 180 |  |  |  |  |  |  | 105 | 35 | 136 |
| Cc1ccc2c(c1)[n+]([O-])c(NCCCN(C)CCCNC(=O)c1cccc3nc4ccccc4nc13)n[n+]2[O-] [Compound 87, N-[3-(Methyl{3-[(6-methyl-1,4-dioxido-1,2,4-benzotriazin-3-yl)amino]propyl}amino)propyl]-1-phenazinecarboxamide] |  |  |  | 111 to 114 |  |  |  |  |  |  |  |  |  |
| Cc1ccc2c(c1)[n+]([O-])c(NCCCNCCCNC(=O)c1cccc3nc4cccc(C)c4nc13)n[n+]2[O-] [Compound 88, 9-Methyl-N-[3-({3-[(6-methyl-1,4-dioxido-1,2,4-benzotriazin-3-yl)amino]propyl}amino)propyl]-1-phenazinecarboxamide] |  |  |  | 80 to 83 |  |  |  |  |  |  |  |  |  |
| CN(CCNC(=O)c1cccc2ccc(-c3ccncc3)nc12)CCNc1n[n+]([O-])c2ccccc2[n+]1[O-] [Compound 96, N-{2-[{2-[(1,4-Dioxido-1,2,4-benzotriazin-3-yl)amino]ethyl}(methyl)amino]ethyl}-2-(4-pyridinyl)-8-quinolinecarboxamide] | 31 | 77 | 190 | 130 to 135 | 2300 | 65 | 3.9 |  |  |  | 100 | 37 | 78 |
| CN(CCNC(=O)c1cccc2nc3ccccc3nc12)CCNc1n[n+]([O-])c2ccccc2[n+]1[O-] [Compound 97, N-{2-[{2-[(1,4-Dioxido-1,2,4-benzotriazin-3-yl)amino]ethyl}(methyl)amino]ethyl}-1-phenazinecarboxamide] |  |  |  | 163 to 165 |  |  |  |  |  |  |  |  |  |
| Cc1cccc2nc3cccc(C(=O)NCCN(C)CCNc4n[n+]([O-])c5ccccc5[n+]4[O-])c3nc12 [Compound 98, N-{2-[{2-[(1,4-Dioxido-1,2,4-benzotriazin-3-yl)amino]ethyl}(methyl)amino]ethyl}-9-methyl-1-phenazinecarboxamide] | 114 | 45 | 135 | 161 to 163 |  |  |  |  |  |  | 75 | 63 | 30 |
| Cc1cccc2cc3cccc(C(=O)NCCN(C)CCNc4n[n+]([O-])c5ccccc5[n+]4[O-])c3nc12 [Compound 99, N-{2-[{2-[(1,4-Dioxido-1,2,4-benzotriazin-3-yl)amino]ethyl}(methyl)amino]ethyl}-5-methyl-4-acridinecarboxamide] | 14 | 25 | 410 | 148 to 152 | 290 | 176 | 17.2 |  |  |  |  |  |  |
| O=C(NCCNCCNc1n[n+]([O-])c2ccccc2[n+]1[O-])c1cccc2ccc(-c3ccncc3)nc12 [Compound 102, N-[2-({2-[(1,4-Dioxido-1,2,4-benzotriazin-3-yl)amino]ethyl}amino)ethyl]-2-(4-pyridinyl)-8-quinolinecarboxamide] | 12 | 54 | 490 | 160 to 165 |  |  |  |  |  |  | 160 | 23 | 53 |
| Cc1cccc2cc3cccc(C(=O)NCCNCCNc4n[n+]([O-])c5ccccc5[n+]4[O-])c3nc12 [Compound 103, N-[2-({2-[(1,4-Dioxido-1,2,4-benzotriazin-3-yl)amino]ethyl}amino)ethyl]-5-methyl-4-acridinecarboxamide] | 357 | 83 | 35 | 135 to 140 |  |  |  |  |  |  | 10 | 309 | 118 |
| CN(C)CCCC(=O)c1cc(NC(=O)c2cc(NC(=O)CCCNc3n[n+]([O-])c4ccccc4[n+]3[O-])cn2C)cn1C [Compound 112, N-{5-[4-(Dimethylamino)butanoyl]-1-methyl-1H-pyrrol-3-yl}-4-({4-[(1,4-dioxido-1,2,4-benzotriazin-3-yl)amino]butanoyl}amino)-1-methyl-1H-pyrrole-2-carboxamide] |  |  |  | 140 to 145 |  |  |  |  |  |  |  |  |  |

— US20070191372A1, “Dna-targeted benzotriazine 1,4-dioxides and their use in cancer therapy” (Auckland Uniservices Limited, priority 2002, published 2007)
